The target of assay [1] is T1, SARS-CoV-2 PLpro (nsp3 1564–1878) (Severe acute respiratory syndrome coronavirus 2, UniProt P0DTD1). The assay is described as follows: biochemical. Set-up: FRET-quenched peptide (Pro3) cleavage by PLpro, 10 min pre-incubation, slope over 20 min, normalised to no-compound control. The conditions noted are these: high concentration screen, read-out: % of control remaining.

For assay [2], the target named is T1, SARS-CoV-2 PLpro (nsp3 1564–1878). Put plainly: biochemical. Set-up: FRET-quenched peptide (Pro3) cleavage by PLpro, 10 min pre-incubation, slope over 20 min, normalised to no-compound control. To be noted: low concentration screen, read-out: % of control remaining.

Each structure is given as a SMILES string. Structures can show the parent of a compound that is named as a salt. Where two headings read alike, the source gives them in different places. Where a SMILES comes first, the peptide text is derived from it. [ ]: non-standard residue; d: D form. The star is where a group is joined. Dolaproine = CO[C@@H]([C@@H]1CCCN1)[C@@H](C)C(=O)O; Dil = CC[C@H](C)[C@H](NC)[C@@H](CC(=O)O)OC; NMe2Val = CC(C)[C@@H](C(=O)*)N(C)C

For `CC(C)(O)[C@H]1CC[C@@](C)([C@H]2[C@@H](O)C[C@@]3(C)[C@@H]4C[C@H](O[C@@H]5O[C@H](CO)[C@@H](O)[C@H](O)[C@H]5O)[C@H]5C(C)(C)[C@@H](O[C@@H]6OC[C@@H](O)[C@H](O)[C@H]6O)CC[C@@]56C[C@@]46CC[C@]23C)O1` [Astragaloside A], in assay [1] (Well no.=5238), the remaining activity at 3.75 µM stood at 102%. For the same compound, in assay [2] (Well no.=5238), the remaining activity at 1.25 µM worked out at 98.6%.

In the case of `CN(C)C(N)=NCCC[C@H](N)C(=O)O` [Asymmetric dimethylarginine], in assay [1] (Well no.=7119), the remaining activity at 3.75 µM amounted to 102%. The remaining activity at 1.25 µM in assay [2] (Well no.=7119) was determined as 103%.

Take `COC(=O)N[C@H](C(=O)N[C@@H](Cc1ccccc1)[C@@H](O)CN(Cc1ccc(-c2ccccn2)cc1)NC(=O)[C@@H](NC(=O)OC)C(C)(C)C)C(C)(C)C` [Atazanavir sulfate]: the remaining activity at 3.75 µM in assay [1] (Well no.=5245) amounted to 101%. Also, the remaining activity at 1.25 µM in assay [2] (Well no.=5245) came out at 96.5%.

In the case of `COC(=O)N[C@H](C(=O)N[C@@H](Cc1ccccc1)[C@@H](O)CN(Cc1ccc(-c2ccccn2)cc1)NC(=O)[C@@H](NC(=O)OC)C(C)(C)C)C(C)(C)C` [Atazanavir], the remaining activity at 3.75 µM in assay [1] (Well no.=1918) was 95.7%. For the same compound, the remaining activity at 1.25 µM in assay [2] (Well no.=1918) was 97.5%.

In the case of `CC(C)NCC(O)COc1ccc(CC(N)=O)cc1` (stereo not drawn) [Atenolol], the remaining activity at 3.75 µM in assay [1] (Well no.=2131) was determined as 104%; in assay [1] (Well no.=7671), 98.5%. In addition, the remaining activity at 1.25 µM in assay [2] (Well no.=2131) is 103%; in assay [2] (Well no.=7671), 97.3%.

Take `CN(C)C(=O)Nc1cccc(-c2ccc(N(C)C)cc2)c1` [Atglistatin]: the remaining activity at 3.75 µM in assay [1] (Well no.=5396) is 81.1%. In addition, the remaining activity at 1.25 µM in assay [2] (Well no.=5396) is 98.8%.

Take `CCC1(c2c[nH]cn2)Cc2ccccc2C1` [Atipamezole (hydrochloride)]: the remaining activity at 3.75 µM in assay [1] (Well no.=7481) was 98.7%. In addition, the remaining activity at 1.25 µM in assay [2] (Well no.=7481) was 102%.

As for `CCC1(c2c[nH]cn2)Cc2ccccc2C1` [Atipamezole], the remaining activity at 3.75 µM in assay [1] (Well no.=6663) worked out at 101%. In addition, the remaining activity at 1.25 µM in assay [2] (Well no.=6663) was 101%.

Regarding `CC(C)c1c(C(=O)Nc2ccccc2)c(-c2ccccc2)c(-c2ccc(F)cc2)n1CC[C@@H](O)C[C@@H](O)CC(=O)O` [Atorvastatin Calcium], the remaining activity at 3.75 µM in assay [1] (Well no.=8096) is 98.2%. Also, the remaining activity at 1.25 µM in assay [2] (Well no.=8096) was determined as 95.7%.

In the case of `O=C1C(O)=C([C@H]2CC[C@H](c3ccc(Cl)cc3)CC2)C(=O)c2ccccc21` [Atovaquone], the remaining activity at 3.75 µM in assay [1] (Well no.=1838) turned out to be 94.9%. The remaining activity at 1.25 µM in assay [2] (Well no.=1838) is 92.3%.

Consider `COc1ccc(C[C@@H]2c3cc(OC)c(OC)cc3CC[N@+]2(C)CCC(=O)OCCCCCOC(=O)CC[N@@+]2(C)CCc3cc(OC)c(OC)cc3[C@H]2Cc2ccc(OC)c(OC)c2)cc1OC` [Atracurium besylate], for which the remaining activity at 3.75 µM in assay [1] (Well no.=2133) turned out to be 98.2%. Also, in assay [2] (Well no.=2133), the remaining activity at 1.25 µM turned out to be 92.8%.

Take `CN1[C@@H]2CC[C@H]1C[C@@H](OC(=O)C(CO)c1ccccc1)C2` (stereo partly drawn) [Atropine (sulfate monohydrate)]: the remaining activity at 3.75 µM in assay [1] (Well no.=7677) was 94.5%. Also, in assay [2] (Well no.=7677), the remaining activity at 1.25 µM was found to be 93.8%.

Regarding `C[N+]1(C)[C@@H]2CC[C@H]1C[C@@H](OC(=O)C(CO)c1ccccc1)C2` (stereo partly drawn) [Atropine methyl bromide], the remaining activity at 3.75 µM in assay [1] (Well no.=117) was determined as 96.6%. The remaining activity at 1.25 µM in assay [2] (Well no.=117) stood at 100%.

Take `C[N+]1(C)[C@@H]2CC[C@H]1C[C@@H](OC(=O)C(CO)c1ccccc1)C2` (stereo partly drawn) [Atropine methyl nitrate]: the remaining activity at 3.75 µM in assay [1] (Well no.=245) worked out at 100%. In addition, the remaining activity at 1.25 µM in assay [2] (Well no.=245) worked out at 99.7%.

With `CN1[C@@H]2CC[C@H]1C[C@@H](OC(=O)C(CO)c1ccccc1)C2` (stereo partly drawn) [Atropine sulfate], the remaining activity at 3.75 µM in assay [1] (Well no.=3238) was 102%. In addition, the values for the remaining activity at 1.25 µM in assay [2] (Well no.=197) and in assay [2] (Well no.=3238) were 99.5% and 102%, respectively.

For the compound `OCC1=C[C@@H](O)[C@@H]2C=CO[C@@H](O[C@@H]3O[C@H](CO)[C@@H](O)[C@H](O)[C@H]3O)[C@H]12` [Aucubin], in assay [1] (Well no.=3162), the remaining activity at 3.75 µM was determined as 97.6%. The remaining activity at 1.25 µM in assay [2] (Well no.=3162) was determined as 99.3%.

Consider `CC(C)=CCC/C(C)=C/COc1ccc2ccc(=O)oc2c1` [Auraptene], for which the remaining activity at 3.75 µM in assay [1] (Well no.=3511) turned out to be 104%. Moreover, the remaining activity at 1.25 µM in assay [2] (Well no.=3511) was 101%.

In the case of `O=C(O)C1=CC(=C(c2ccc(O)c(C(=O)O)c2)c2ccc(O)c(C(=O)O)c2)C=CC1=O` [Aurintricarboxylic acid], the remaining activity at 3.75 µM in assay [1] (Well no.=249) stood at 109%. The remaining activity at 1.25 µM in assay [2] (Well no.=249) worked out at 97.6%.

In the case of `CC[C@H](C)[C@@H]([C@@H](CC(=O)N1CCC[C@H]1[C@H](OC)[C@@H](C)C(=O)N[C@@H](Cc1ccccc1)C(=O)O)OC)N(C)C(=O)[C@@H](NC(=O)[C@H](C(C)C)N(C)C)C(C)C` [Auristatin F] (NMe2Val-V[Dil][Dolaproine]F-OH), the remaining activity at 3.75 µM in assay [1] (Well no.=8602) is 100%. The remaining activity at 1.25 µM in assay [2] (Well no.=8602) was 106%.

Turning to `CCN1CCN(C(=O)Cc2ccc(Nc3ncc(F)c(Nc4ccc(C(=O)Nc5ccccc5Cl)cc4)n3)cc2)CC1` [Aurora A Inhibitor I], in assay [1] (Well no.=5241), the remaining activity at 3.75 µM came out at 102%. Also, the remaining activity at 1.25 µM in assay [2] (Well no.=5241) was 95.1%.

On to `O=C(Nc1cccc(Nc2nccc(Nc3cccc(C(F)(F)F)c3)n2)c1)C1CC1` [Aurora Kinase Inhibitor III], for which the remaining activity at 3.75 µM came to 102% in assay [1] (Well no.=2326) and 94% in assay [1] (Well no.=2659). Moreover, the remaining activity at 1.25 µM in assay [2] (Well no.=2326) was 105%; in assay [2] (Well no.=2659), 95.7%.

`COc1cc2ncnc(Nc3ccc(NC(=O)c4ccccc4)cc3)c2cc1OC` [Aurora Kinase Inhibitor II]: in assay [1] (Well no.=2321), the remaining activity at 3.75 µM came out at 99.9%. The remaining activity at 1.25 µM in assay [2] (Well no.=2321) came out at 99.4%.

Turning to `Nc1nc(Nc2ccc(S(N)(=O)=O)cc2)nn1C(=O)c1c(F)cccc1F` [Aurora Kinase/Cdk Inhibitor], the remaining activity at 3.75 µM in assay [1] (Well no.=2356) came to 100%. For the same compound, in assay [2] (Well no.=2356), the remaining activity at 1.25 µM amounted to 98.5%.

`CC1=CC(=O)C2=C(C)C[C@H](O)[C@@H]3[C@H](OC(=O)[C@H]3C)[C@@H]12` [Austricin]: the remaining activity at 3.75 µM in assay [1] (Well no.=3105) was 105%. In assay [2] (Well no.=3105), the remaining activity at 1.25 µM came out at 102%.

Turning to `Cc1nc2cccc(N)c2c(=O)n1C1CCC(=O)NC1=O` (stereo not drawn) [Avadomide], the remaining activity at 3.75 µM in assay [1] (Well no.=6870) amounted to 95.9%. The remaining activity at 1.25 µM in assay [2] (Well no.=6870) amounted to 99.6%.

Regarding `COc1ccc(CNc2nc(N3CCC[C@H]3CO)ncc2C(=O)NCc2ncccn2)cc1Cl` [Avanafil], the remaining activity at 3.75 µM in assay [1] (Well no.=5078) was 100%. Further, in assay [2] (Well no.=5078), the remaining activity at 1.25 µM was found to be 101%.

With `CC(C)c1cc(C(C)C)c(CC(=O)NS(=O)(=O)Oc2c(C(C)C)cccc2C(C)C)c(C(C)C)c1` [Avasimibe], the results for the remaining activity at 3.75 µM in assay [1] (Well no.=5705) and in assay [1] (Well no.=8336) were 96.6% and 88%, respectively. For the same compound, the remaining activity at 1.25 µM worked out at 99.6% in assay [2] (Well no.=5705) and 89.6% in assay [2] (Well no.=8336).

For the compound `COc1ccccc1Oc1c(NS(=O)(=O)c2ccc(C)cn2)nc(-c2ccncc2)nc1OC` [Avosentan], the remaining activity at 3.75 µM in assay [1] (Well no.=7281) was 100%. Further, in assay [2] (Well no.=7281), the remaining activity at 1.25 µM turned out to be 102%.

The record behind these values is publication PMC8286840, “Identifying SARS-CoV-2 antiviral compounds by screening for small molecule inhibitors of Nsp3 papain-like protease” (Biochemical Journal, 2021).
